Measurements as given in ChEMBL document CHEMBL4808219, “Exploration of Benzo[b]carbazole-6,11-diones as anticancer agents: Synthesis and studies of hTopoIIα inhibition and apoptotic effects” (Bioorg Med Chem Lett, 2021).
Active and inactive are the calls of the source. No cut-off for these calls is given here.

Experiments:
HEK-293T = assay: Cytotoxicity against human HEK293T cells assessed as reduction in cell viability incubated for 48 hrs by MTT assay; format: cell-based
MDA-MB-231 [1] = assay: Cytotoxicity against human MDA-MB-231 cells assessed as reduction in cell viability incubated for 48 hrs by MTT assay; format: functional, cell-based
MCF7 = assay: Cytotoxicity against human MCF7 cells assessed as reduction in cell viability incubated for 48 hrs by MTT assay; format: functional, cell-based
[2] = Cytotoxicity against human H357 cells assessed as reduction in cell viability incubated for 48 hrs by MTT assay; format: functional, cell-based
[3] = target: DNA topoisomerase 2-alpha (Homo sapiens) (UniProt P11388); assay: Inhibition of human topoisomerase 2alpha assessed as reduction in decatenation of kinetoplast DNA by agarose gel electrophoresis method
MCF-10A = assay: Cytotoxicity against human MCF-10A cells; format: cell-based
MDA-MB-231 [4] = assay: Cytotoxicity against human MDA-MB-231 cells assessed as reduction in cell survival by clonogenic assay; format: functional, cell-based
[5] = Homo sapiens, MDA-MB-231, 48 h, read-out: IC50
[6] = Homo sapiens, MCF7, 48 h, read-out: IC50
[7] = Homo sapiens, H357, 48 h, read-out: IC50

Sequence of DNA topoisomerase 2-alpha (Homo sapiens) (P11388 whole entry): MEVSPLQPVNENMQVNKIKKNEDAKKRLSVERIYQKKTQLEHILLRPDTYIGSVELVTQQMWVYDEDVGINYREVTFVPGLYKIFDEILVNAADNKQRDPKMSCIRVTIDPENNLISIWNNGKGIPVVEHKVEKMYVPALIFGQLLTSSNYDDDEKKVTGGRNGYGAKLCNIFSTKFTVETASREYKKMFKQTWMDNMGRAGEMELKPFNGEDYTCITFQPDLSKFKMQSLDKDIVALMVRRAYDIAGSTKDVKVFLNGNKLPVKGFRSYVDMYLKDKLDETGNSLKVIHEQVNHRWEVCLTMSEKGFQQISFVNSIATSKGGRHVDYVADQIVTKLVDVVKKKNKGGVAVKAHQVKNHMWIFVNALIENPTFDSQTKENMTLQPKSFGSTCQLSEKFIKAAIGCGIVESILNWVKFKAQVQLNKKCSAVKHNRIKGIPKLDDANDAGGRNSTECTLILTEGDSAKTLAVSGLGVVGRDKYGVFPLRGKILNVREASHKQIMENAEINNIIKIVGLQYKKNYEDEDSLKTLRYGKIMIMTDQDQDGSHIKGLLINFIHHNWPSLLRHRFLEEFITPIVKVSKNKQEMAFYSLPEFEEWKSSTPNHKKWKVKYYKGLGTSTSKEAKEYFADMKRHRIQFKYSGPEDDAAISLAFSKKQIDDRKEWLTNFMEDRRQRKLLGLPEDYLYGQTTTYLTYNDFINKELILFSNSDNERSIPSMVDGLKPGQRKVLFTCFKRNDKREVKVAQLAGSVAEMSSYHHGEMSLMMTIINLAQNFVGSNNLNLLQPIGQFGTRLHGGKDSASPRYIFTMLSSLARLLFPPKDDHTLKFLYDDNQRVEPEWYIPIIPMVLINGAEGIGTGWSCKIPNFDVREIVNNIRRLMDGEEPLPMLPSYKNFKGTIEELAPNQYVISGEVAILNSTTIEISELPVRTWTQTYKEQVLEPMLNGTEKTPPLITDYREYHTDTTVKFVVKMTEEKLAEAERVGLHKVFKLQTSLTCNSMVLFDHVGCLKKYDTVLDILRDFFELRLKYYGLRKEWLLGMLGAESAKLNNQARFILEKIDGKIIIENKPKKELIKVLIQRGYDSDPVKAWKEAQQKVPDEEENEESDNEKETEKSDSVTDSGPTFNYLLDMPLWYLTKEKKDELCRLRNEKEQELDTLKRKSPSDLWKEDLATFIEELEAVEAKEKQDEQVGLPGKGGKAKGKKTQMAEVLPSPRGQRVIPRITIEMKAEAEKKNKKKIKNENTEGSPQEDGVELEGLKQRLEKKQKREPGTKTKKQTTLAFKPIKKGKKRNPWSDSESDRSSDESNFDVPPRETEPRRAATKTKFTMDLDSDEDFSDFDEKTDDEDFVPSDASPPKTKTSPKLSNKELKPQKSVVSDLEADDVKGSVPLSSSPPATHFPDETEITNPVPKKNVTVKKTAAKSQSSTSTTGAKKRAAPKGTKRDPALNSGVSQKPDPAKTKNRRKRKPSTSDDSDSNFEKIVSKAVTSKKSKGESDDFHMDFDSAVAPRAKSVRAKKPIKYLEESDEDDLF

COc1ccc2[nH]c3c(c2c1)C(=O)c1ccccc1C3=O showed an IC50 (HEK-293T) of 10.5 µM, an IC50 (MDA-MB-231 [1]; [5]) of 8.7 µM and an IC50 (MCF7; [6]) of 8 µM. It also gave an IC50 [2, 7] of 9.6 µM.
In the case of Cc1ccc(NC2=CC(=O)c3ccccc3C2=O)cc1, the inhibition [3] is reported as “Active”, the IC50 (HEK-293T) is reported as 5.6 µM and the IC50 (MDA-MB-231 [1]; [5]) is reported as 5.3 µM. The IC50 (MCF7; [6]) was 6.4 µM and the IC50 [2, 7] was 5.2 µM.
In the case of Cn1c2c(c3ccccc31)C(=O)c1ccccc1C2=O, the inhibition [3] is reported as “Active”, the IC50 (HEK-293T) is reported as 8.4 µM and the IC50 (MDA-MB-231 [1]; [5]) is reported as 6.5 µM. For the same compound, the IC50 (MCF7; [6]) was 5.4 µM and the IC50 [2, 7] was 7.3 µM.
With COc1cc2[nH]c3c(c2c(OC)c1OC)C(=O)c1c(OC)cccc1C3=O the IC50 (MDA-MB-231 [1]; mda-mb-231) was “Not Active”, the IC50 (MCF7; mcf7) was “Not Active” and the IC50 ([2]; h357) was “Not Active”.
Cc1ccc(NC2=CC(=O)c3ccccc3C2=O)cc1C gave an IC50 (HEK-293T) of 7.7 µM, an IC50 (MDA-MB-231 [1]; [5]) of 5.9 µM and an IC50 (MCF7; [6]) of 5.3 µM. The IC50 [2, 7] was 6.4 µM.
Work on CCC(C)c1ccc(NC2=CC(=O)c3ccccc3C2=O)cc1 (configuration not stated) yielded an IC50 (HEK-293T) of 5.2 µM, an IC50 (MDA-MB-231 [1]; [5]) of 4.2 µM and an IC50 (MCF7; [6]) of 4.2 µM. For the same compound, the IC50 [2, 7] was 4 µM.
For O=C1C=C(Nc2ccccc2)C(=O)c2ccccc21, the IC50 (HEK-293T) was 5.6 µM, the IC50 (MDA-MB-231 [1]; [5]) was 5.3 µM and the IC50 (MCF7; [6]) was 4.4 µM. It also gave an IC50 [2, 7] of 4.2 µM.
O=C1C=C(Nc2ccc(Cl)cc2)C(=O)c2ccccc21 gave an IC50 (HEK-293T) of 4.9 µM, an IC50 (MDA-MB-231 [1]; [5]) of 3.9 µM and an IC50 (MCF7; [6]) of 4.1 µM. It also gave an IC50 [2, 7] of 4.8 µM.
With O=C1C(Nc2ccccc2)=CC(=O)c2c(O)cccc21 the IC50 (HEK-293T) was 4.2 µM, the IC50 (MDA-MB-231 [1]; [5]) was 3.7 µM and the IC50 (MCF7; [6]) was 3.8 µM. The IC50 [2, 7] was 4.9 µM.
For O=C1c2ccccc2C(=O)c2c1[nH]c1ccc(Cl)cc21, the inhibition [3] was “Active”, the IC50 (HEK-293T) was 6.3 µM and the IC50 (MDA-MB-231 [1]; [5]) was 4.4 µM. For the same compound, the IC50 (MCF7; [6]) was 4.5 µM and the IC50 [2, 7] was 4.6 µM.
In the case of Cc1ccc2[nH]c3c(c2c1)C(=O)c1ccccc1C3=O, the inhibition [3] is reported as “Active”, the IC50 (HEK-293T) is reported as 8 µM and the IC50 (MDA-MB-231 [1]; [5]) is reported as 4.9 µM. It also gave an IC50 (MCF7; [6]) of 5.2 µM and an IC50 [2, 7] of 6.1 µM.
In the case of O=C1C=C(Nc2nccs2)C(=O)c2ccccc21, the IC50 (HEK-293T) is reported as 7.6 µM, the IC50 (MDA-MB-231 [1]; [5]) is reported as 6.3 µM and the IC50 (MCF7; [6]) is reported as 6.4 µM. For the same compound, the IC50 [2, 7] was 7.2 µM.
O=C1C=C(Nc2cccc(Cl)c2)C(=O)c2ccccc21 showed an IC50 (HEK-293T) of 5.2 µM, an IC50 (MDA-MB-231 [1]; [5]) of 4.1 µM and an IC50 (MCF7; [6]) of 4.2 µM. For the same compound, the IC50 [2, 7] was 4 µM.
With COc1cccc2c1C(=O)c1c([nH]c3ccccc13)C2=O the IC50 (HEK-293T) was 10.4 µM, the IC50 (MDA-MB-231 [1]; [5]) was 8.9 µM and the IC50 (MCF7; [6]) was 9.8 µM. It also gave an IC50 [2, 7] of 10.5 µM.
Work on COc1cccc2c1C(=O)C=C(Nc1ccccc1)C2=O yielded an IC50 (HEK-293T) of 7.7 µM, an IC50 (MDA-MB-231 [1]; [5]) of 6.2 µM and an IC50 (MCF7; [6]) of 6 µM. For the same compound, the IC50 [2, 7] was 6.4 µM.
With CN(C)CCCNC1=CC(=O)c2ccccc2C1=O the IC50 (HEK-293T) was 8.1 µM, the IC50 (MDA-MB-231 [1]; [5]) was 6.4 µM and the IC50 (MCF7; [6]) was 6.3 µM. The IC50 [2, 7] was 7.3 µM.
COc1ccc2c3c([nH]c2c1)C(=O)c1ccccc1C3=O showed an IC50 (HEK-293T) of 9.8 µM, an IC50 (MDA-MB-231 [1]; [5]) of 7.5 µM and an IC50 (MCF7; [6]) of 7 µM. For the same compound, the IC50 [2, 7] was 7.9 µM.
With COc1cc2[nH]c3c(c2c(OC)c1OC)C(=O)c1ccccc1C3=O the inhibition [3] was “Active”, the IC50 (HEK-293T) was 10.5 µM and the IC50 (MDA-MB-231 [1]; [5]) was 8.1 µM. The IC50 (MCF7; [6]) was 8.2 µM and the IC50 [2, 7] was 9.4 µM.
For COc1ccc(NC2=CC(=O)c3ccccc3C2=O)cc1OC, the inhibition [3] was “Active”, the IC50 (HEK-293T) was 6.3 µM and the IC50 (MDA-MB-231 [1]; [5]) was 6.2 µM. The IC50 (MCF7; [6]) was 6.4 µM and the IC50 [2, 7] was 6.2 µM.
With O=C1C=C(Nc2cnccn2)C(=O)c2ccccc21 the IC50 (HEK-293T) was 9 µM, the IC50 (MDA-MB-231 [1]; [5]) was 7 µM and the IC50 (MCF7; [6]) was 7.2 µM. For the same compound, the IC50 [2, 7] was 8.1 µM.
Work on COc1cc2[nH]c3c(c2cc1OC)C(=O)c1ccccc1C3=O yielded an IC50 (HEK-293T) of 10.2 µM, an IC50 (MDA-MB-231 [1]; [5]) of 7.4 µM and an IC50 (MCF7; [6]) of 8.4 µM. The IC50 [2, 7] was 8.7 µM.
With CN1CCN(CCCNC2=CC(=O)c3ccccc3C2=O)CC1 the IC50 (HEK-293T) was 10.9 µM, the IC50 (MDA-MB-231 [1]; [5]) was 10 µM and the IC50 (MCF7; [6]) was 10.4 µM. For the same compound, the IC50 [2, 7] was 10.9 µM.
In the case of COc1ccc(NC2=CC(=O)c3ccccc3C2=O)cc1, the IC50 (HEK-293T) is reported as 5.5 µM, the IC50 (MDA-MB-231 [1]; [5]) is reported as 4.8 µM and the IC50 (MCF7; [6]) is reported as 4.5 µM. For the same compound, the IC50 [2, 7] was 4.6 µM.
For COc1cc(NC2=CC(=O)c3c(OC)cccc3C2=O)cc(OC)c1OC, the IC50 (MDA-MB-231 [1]; mda-mb-231) was “Not Active”, the IC50 (MCF7; mcf7) was “Not Active” and the IC50 ([2]; h357) was “Not Active”.
Compound O=C1C=C(Nc2ccc(F)c(F)c2)C(=O)c2ccccc21 has an IC50 (HEK-293T) of 9.4 µM, an IC50 (MDA-MB-231 [1]; [5]) of 7 µM and an IC50 (MCF7; [6]) of 7.2 µM. For the same compound, the IC50 [2, 7] was 8.4 µM.
With COc1cc(NC2=CC(=O)c3c(O)cccc3C2=O)cc(OC)c1OC the IC50 (MDA-MB-231 [1]; mda-mb-231) was “Not Active”, the IC50 (MCF7; mcf7) was “Not Active” and the IC50 ([2]; h357) was “Not Active”.
With O=C1c2ccccc2C(=O)c2c1[nH]c1cc(F)c(F)cc21 the IC50 (MDA-MB-231 [1]; mda-mb-231) was “Not Active”, the IC50 (MCF7; mcf7) was “Not Active” and the IC50 ([2]; h357) was “Not Active”.
O=C1C=C(NCCCO)C(=O)c2ccccc21 showed an IC50 (HEK-293T) of 10.3 µM, an IC50 (MDA-MB-231 [1]; [5]) of 9.8 µM and an IC50 (MCF7; [6]) of 9.6 µM. For the same compound, the IC50 [2, 7] was 9.9 µM.
For O=C1c2ccccc2C(=O)c2c1[nH]c1ccc(F)cc21, the inhibition [3] was “Active”, the IC50 (HEK-293T) was 7.5 µM and the IC50 (MDA-MB-231 [1]; [5]) was 4.8 µM. The IC50 (MCF7; [6]) was 4.7 µM and the IC50 [2, 7] was 5.6 µM.
With Cc1cc2[nH]c3c(c2cc1C)C(=O)c1ccccc1C3=O the IC50 (HEK-293T) was 7 µM, the IC50 (MDA-MB-231 [1]; [5]) was 6.3 µM and the IC50 (MCF7; [6]) was 4.2 µM. The IC50 [2, 7] was 6.1 µM.
In the case of O=C1C=C(Nc2ccc(F)cc2)C(=O)c2ccccc21, the IC50 (HEK-293T) is reported as 5.2 µM, the IC50 (MDA-MB-231 [1]; [5]) is reported as 4.9 µM and the IC50 (MCF7; [6]) is reported as 4.1 µM. The IC50 [2, 7] was 3.8 µM.
For COc1cc2[nH]c3c(c2c(OC)c1OC)C(=O)c1c(O)cccc1C3=O, the IC50 (MDA-MB-231 [1]; mda-mb-231) was “Not Active”, the IC50 (MCF7; mcf7) was “Not Active” and the IC50 ([2]; h357) was “Not Active”.
COc1cc(NC2=CC(=O)c3ccccc3C2=O)cc(OC)c1OC gave an IC50 (HEK-293T) of 8.4 µM, an IC50 (MDA-MB-231 [1]; [5]) of 6.9 µM and an IC50 (MCF7; [6]) of 7 µM. The IC50 [2, 7] was 6.8 µM.
COc1cc([C@@H]2c3cc4c(cc3[C@@H](O[C@@H]3O[C@@H]5CO[C@@H](C)O[C@H]5[C@H](O)[C@H]3O)[C@H]3COC(=O)[C@H]23)OCO4)cc(OC)c1O [ETOPOSIDE] gave an IC50 (HEK-293T) of 22 µM, an IC50 (MDA-MB-231 [1]; [5]) of 48 µM and an IC50 (MCF7; [6]) of 45 µM. The IC50 [2, 7] was 32 µM, the IC50 (MCF-10A) was > 120 µM and the IC50 (MDA-MB-231 [4]) was 42 µM.
O=C1C=C(Nc2ccc3c(c2)OCO3)C(=O)c2ccccc21 gave an IC50 (HEK-293T) of 10.2 µM, an IC50 (MDA-MB-231 [1]; [5]) of 9.4 µM and an IC50 (MCF7; [6]) of 9.6 µM. For the same compound, the IC50 [2, 7] was 10.4 µM.
In the case of CCC(C)c1ccc2[nH]c3c(c2c1)C(=O)c1ccccc1C3=O (configuration not stated), the inhibition [3] is reported as “Active”, the IC50 (HEK-293T) is reported as 9 µM and the IC50 (MDA-MB-231 [1]; [5]) is reported as 5.4 µM. For the same compound, the IC50 (MCF7; [6]) was 6.3 µM and the IC50 [2, 7] was 7.1 µM.
Work on O=C1C=C(NCCCN2CCOCC2)C(=O)c2ccccc21 yielded an IC50 (HEK-293T) of 7.2 µM, an IC50 (MDA-MB-231 [1]; [5]) of 6.4 µM and an IC50 (MCF7; [6]) of 6.2 µM. The IC50 [2, 7] was 6.9 µM.
With O=C1c2ccccc2C(=O)c2c1[nH]c1ccccc21 [BENZOCARBAZOLEDIONE] the IC50 (HEK-293T) was 5.8 µM, the IC50 (MDA-MB-231 [1]; [5]) was 5.2 µM and the IC50 (MCF7; [6]) was 4.5 µM. For the same compound, the IC50 [2, 7] was 5 µM.
With O=C1c2ccccc2C(=O)c2c1[nH]c1cc(Cl)ccc21 the inhibition [3] was “Active”, the IC50 (HEK-293T) was 7.3 µM and the IC50 (MDA-MB-231 [1]; [5]) was 5.5 µM. For the same compound, the IC50 (MCF7; [6]) was 4.4 µM and the IC50 [2, 7] was 6.5 µM.
